Test results: ChEMBL document CHEMBL3616395, “Discovery of 4-arylamido 3-methyl isoxazole derivatives as novel FMS kinase inhibitors” (Eur J Med Chem, 2015)
Activity calls are given as the source filed them. No cut-off for these calls is given here.

Tests used:
[1] = biological target: ALK tyrosine kinase receptor (Homo sapiens) (UniProt Q9UM73); assay: Inhibition of ALK (unknown origin) at 10 uM after 40 mins by scintillation counting analysis
[2] = biological target: Aurora kinase A (Homo sapiens) (UniProt O14965); assay: Inhibition of Aurora A (unknown origin) at 10 uM after 40 mins by scintillation counting analysis
[3] = Cytotoxicity against human HS27 cells after 24 hrs by MTT assay; type: cell-based
[4] = biological target: Fibroblast growth factor receptor 2 (Homo sapiens) (UniProt P21802); assay: Inhibition of FGFR2 (unknown origin) at 10 uM after 40 mins by scintillation counting analysis
U-937 = assay: Antiproliferative activity against human U937 cells after 24 hrs by MTT assay; type: functional; conditions: U-937, 24 h
[5] = biological target: T1, RAF proto-oncogene serine/threonine-protein kinase (Homo sapiens, UniProt P04049); assay: Inhibition of RAF1 (unknown origin) at 10 uM after 40 mins by scintillation counting analysis
[6] = biological target: Mast/stem cell growth factor receptor Kit (Homo sapiens) (UniProt P10721); assay: Inhibition of c-Kit (unknown origin) at 10 uM after 40 mins by scintillation counting analysis
[7] = biological target: T2, Macrophage colony-stimulating factor 1 receptor (Homo sapiens, UniProt P07333); assay: Inhibition of FMS (unknown origin) after 40 mins by scintillation counting analysis
[8] = biological target: T1, RAF proto-oncogene serine/threonine-protein kinase; assay: Inhibition of C-Raf (unknown origin) after 40 mins by scintillation counting analysis
[9] = biological target: cAMP-dependent protein kinase (PKA) (Homo sapiens) (UniProt P22694+P17612+P22612); assay: Inhibition of PKA (unknown origin) at 10 uM after 40 mins by scintillation counting analysis; type: protein assay
[10] = biological target: T3, Serine/threonine-protein kinase B-raf (Homo sapiens, UniProt P15056); assay: Inhibition of BRAF (unknown origin) at 10 uM after 40 mins by scintillation counting analysis
[11] = biological target: Fibroblast growth factor receptor 3 (Homo sapiens) (UniProt P22607); assay: Inhibition of FGFR3 (unknown origin) at 10 uM after 40 mins by scintillation counting analysis
A375P = assay: Antiproliferative activity against human A375P cells after 24 hrs by MTT assay; type: functional, cell-based
[12] = biological target: Hepatocyte growth factor receptor (Homo sapiens) (UniProt P08581); assay: Inhibition of c-MET (unknown origin) at 10 uM after 40 mins by scintillation counting analysis
[13] = biological target: Mitogen-activated protein kinase 10 (Homo sapiens) (UniProt P53779); assay: Inhibition of JNK3 (unknown origin) at 10 uM after 40 mins by scintillation counting analysis
[14] = biological target: Serine/threonine-protein kinase B-raf (Homo sapiens, UniProt P15056, V600E); assay: Inhibition of BRAF V599E mutant (unknown origin) after 40 mins by scintillation counting analysis
[15] = biological target: T4, Tyrosine-protein kinase Lyn (Homo sapiens, UniProt P07948); assay: Inhibition of Lyn (unknown origin) at 10 uM after 40 mins by scintillation counting analysis
[16] = biological target: Mitogen-activated protein kinase 3 (Homo sapiens) (UniProt P27361); assay: Inhibition of ErK1 (unknown origin) at 10 uM after 40 mins by scintillation counting analysis
[17] = biological target: Macrophage-stimulating protein receptor (Homo sapiens) (UniProt Q04912); assay: Inhibition of RON (unknown origin) at 10 uM after 40 mins by scintillation counting analysis
[18] = biological target: Tyrosine-protein kinase JAK3 (Homo sapiens) (UniProt P52333); assay: Inhibition of Jak3 (unknown origin) at 10 uM after 40 mins by scintillation counting analysis
[19] = biological target: Dual specificity mitogen-activated protein kinase kinase 1 (Homo sapiens) (UniProt Q02750); assay: Inhibition of MEK1 (unknown origin) at 10 uM after 40 mins by scintillation counting analysis
[20] = biological target: T2, Macrophage colony-stimulating factor 1 receptor; assay: Inhibition of FMS (unknown origin) at 10 uM after 40 mins by scintillation counting analysis
[21] = biological target: Receptor-type tyrosine-protein kinase FLT3 (Homo sapiens) (UniProt P36888); assay: Inhibition of FLT3 (unknown origin) at 10 uM after 40 mins by scintillation counting analysis
[22] = biological target: Serine/threonine-protein kinase mTOR (Homo sapiens, UniProt P42345); assay: Inhibition of mTOR (unknown origin) at 10 uM after 40 mins by scintillation counting analysis
[23] = biological target: Vascular endothelial growth factor receptor 2 (Homo sapiens) (UniProt P35968); assay: Inhibition of VEGFR2 (unknown origin) at 10 uM after 40 mins by scintillation counting analysis
[24] = biological target: RAC-alpha serine/threonine-protein kinase (Homo sapiens) (UniProt P31749); assay: Inhibition of AKT1 (unknown origin) at 10 uM after 40 mins by scintillation counting analysis
[25] = biological target: Tyrosine-protein kinase SYK (Homo sapiens) (UniProt P43405); assay: Inhibition of SYK (unknown origin) at 10 uM after 40 mins by scintillation counting analysis
[26] = system: Serine/threonine-protein kinase B-raf (Homo sapiens), P15056 [V600E]; assay: Inhibition of BRAF V599E mutant (unknown origin) at 10 uM after 40 mins by scintillation counting analysis
[27] = biological target: Insulin-like growth factor 1 receptor (Homo sapiens) (UniProt P08069); assay: Inhibition of IGF1R (unknown origin) at 10 uM after 40 mins by scintillation counting analysis
[28] = biological target: Cyclin-dependent kinase 1/cyclin B (Homo sapiens) (UniProt P06493+P14635+Q8WWL7+O95067); assay: Inhibition of CDK1/cyclin B (unknown origin) at 10 uM after 40 mins by scintillation counting analysis; type: protein-complex assay
[29] = biological target: Proto-oncogene tyrosine-protein kinase ROS (Homo sapiens) (UniProt P08922); assay: Inhibition of ROS1 (unknown origin) at 10 uM after 40 mins by scintillation counting analysis
[30] = biological target: Glycogen synthase kinase-3 beta (Homo sapiens) (UniProt P49841); assay: Inhibition of GSK3b (unknown origin) at 10 uM after 40 mins by scintillation counting analysis
[31] = biological target: Serine/threonine-protein kinase PLK1 (Homo sapiens) (UniProt P53350); assay: Inhibition of PLK1 (unknown origin) at 10 uM after 40 mins by scintillation counting analysis
[32] = biological target: T3, Serine/threonine-protein kinase B-raf; assay: Inhibition of BRAF (unknown origin) after 40 mins by scintillation counting analysis
[33] = biological target: Focal adhesion kinase 1 (Homo sapiens) (UniProt Q05397); assay: Inhibition of FAK (unknown origin) at 10 uM after 40 mins by scintillation counting analysis
[34] = biological target: Epidermal growth factor receptor (Homo sapiens) (UniProt P00533); assay: Inhibition of EGFR (unknown origin) at 10 uM after 40 mins by scintillation counting analysis
[35] = biological target: T4, Tyrosine-protein kinase Lyn; assay: Inhibition of Lyn (unknown origin) after 40 mins by scintillation counting analysis
[36] = biological target: Cyclin-dependent kinase 2/cyclin E (Homo sapiens) (UniProt P24864+P24941+O96020); assay: Inhibition of CDK2/cyclin E (unknown origin) at 10 uM after 40 mins by scintillation counting analysis; type: protein-complex assay

T3 sequence (P15056 whole entry): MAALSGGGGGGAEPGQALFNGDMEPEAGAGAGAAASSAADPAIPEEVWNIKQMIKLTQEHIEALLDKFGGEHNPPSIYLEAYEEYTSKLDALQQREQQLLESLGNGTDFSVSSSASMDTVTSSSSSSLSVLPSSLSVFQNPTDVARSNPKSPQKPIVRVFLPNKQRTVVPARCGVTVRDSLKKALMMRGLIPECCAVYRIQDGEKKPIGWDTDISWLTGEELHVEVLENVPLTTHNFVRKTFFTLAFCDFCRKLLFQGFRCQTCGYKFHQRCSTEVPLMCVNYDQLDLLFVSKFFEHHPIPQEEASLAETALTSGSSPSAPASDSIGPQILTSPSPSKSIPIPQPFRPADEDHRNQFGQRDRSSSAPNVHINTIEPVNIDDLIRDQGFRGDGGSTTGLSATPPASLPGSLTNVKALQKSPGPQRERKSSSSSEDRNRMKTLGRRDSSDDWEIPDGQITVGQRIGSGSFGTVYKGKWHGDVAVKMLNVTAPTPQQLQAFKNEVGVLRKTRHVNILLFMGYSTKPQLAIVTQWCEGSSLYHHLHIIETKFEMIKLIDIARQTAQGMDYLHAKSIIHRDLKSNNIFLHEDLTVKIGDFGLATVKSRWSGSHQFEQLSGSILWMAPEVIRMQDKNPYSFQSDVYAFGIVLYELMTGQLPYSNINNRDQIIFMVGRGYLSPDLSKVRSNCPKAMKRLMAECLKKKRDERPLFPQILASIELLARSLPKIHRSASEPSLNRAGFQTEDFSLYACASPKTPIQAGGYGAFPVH
T1 sequence (P04049 whole entry): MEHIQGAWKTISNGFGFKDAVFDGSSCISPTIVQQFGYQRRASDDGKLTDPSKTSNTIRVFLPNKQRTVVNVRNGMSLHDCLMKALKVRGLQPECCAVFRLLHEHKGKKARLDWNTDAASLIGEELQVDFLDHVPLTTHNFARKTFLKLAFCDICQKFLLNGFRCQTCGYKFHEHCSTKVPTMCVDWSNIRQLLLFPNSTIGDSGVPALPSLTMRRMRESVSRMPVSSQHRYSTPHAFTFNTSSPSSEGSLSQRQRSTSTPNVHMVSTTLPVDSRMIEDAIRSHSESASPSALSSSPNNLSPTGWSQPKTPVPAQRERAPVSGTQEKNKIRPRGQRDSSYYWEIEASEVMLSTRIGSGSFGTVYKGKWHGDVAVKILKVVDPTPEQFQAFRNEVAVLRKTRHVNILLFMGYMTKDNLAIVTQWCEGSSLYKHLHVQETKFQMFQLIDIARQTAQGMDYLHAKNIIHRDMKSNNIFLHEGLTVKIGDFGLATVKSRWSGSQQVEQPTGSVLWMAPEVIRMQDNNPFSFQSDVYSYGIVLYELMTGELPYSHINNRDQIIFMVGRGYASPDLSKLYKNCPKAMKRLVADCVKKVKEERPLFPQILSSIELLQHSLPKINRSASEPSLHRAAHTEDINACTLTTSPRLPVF
T2 sequence (P07333 whole entry): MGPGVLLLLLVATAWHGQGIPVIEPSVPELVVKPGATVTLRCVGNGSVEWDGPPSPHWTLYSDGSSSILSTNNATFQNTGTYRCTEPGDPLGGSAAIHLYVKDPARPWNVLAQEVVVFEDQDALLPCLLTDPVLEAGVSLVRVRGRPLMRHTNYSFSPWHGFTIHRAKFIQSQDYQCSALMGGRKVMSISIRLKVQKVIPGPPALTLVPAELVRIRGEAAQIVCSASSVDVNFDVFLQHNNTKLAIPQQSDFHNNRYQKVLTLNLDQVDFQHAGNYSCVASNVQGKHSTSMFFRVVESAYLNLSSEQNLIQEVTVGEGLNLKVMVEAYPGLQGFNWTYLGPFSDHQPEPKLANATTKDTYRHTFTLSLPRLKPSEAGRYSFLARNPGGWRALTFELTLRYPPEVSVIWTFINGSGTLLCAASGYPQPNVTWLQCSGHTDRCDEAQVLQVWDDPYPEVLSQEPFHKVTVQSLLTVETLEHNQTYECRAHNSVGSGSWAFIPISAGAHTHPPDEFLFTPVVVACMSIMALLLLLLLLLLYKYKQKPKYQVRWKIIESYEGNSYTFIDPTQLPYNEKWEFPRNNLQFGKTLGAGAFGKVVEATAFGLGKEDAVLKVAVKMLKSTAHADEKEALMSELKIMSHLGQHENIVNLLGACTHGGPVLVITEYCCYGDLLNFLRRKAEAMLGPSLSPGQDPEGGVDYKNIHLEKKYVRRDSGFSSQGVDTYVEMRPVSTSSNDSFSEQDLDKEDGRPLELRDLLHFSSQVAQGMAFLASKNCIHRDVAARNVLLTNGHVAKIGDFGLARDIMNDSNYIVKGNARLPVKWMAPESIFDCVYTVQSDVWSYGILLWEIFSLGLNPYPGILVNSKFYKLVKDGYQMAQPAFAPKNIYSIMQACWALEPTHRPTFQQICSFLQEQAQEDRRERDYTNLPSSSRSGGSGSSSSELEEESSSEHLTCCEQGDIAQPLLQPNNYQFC
Sequence of Glycogen synthase kinase-3 beta (Homo sapiens) (P49841 whole entry, looked up): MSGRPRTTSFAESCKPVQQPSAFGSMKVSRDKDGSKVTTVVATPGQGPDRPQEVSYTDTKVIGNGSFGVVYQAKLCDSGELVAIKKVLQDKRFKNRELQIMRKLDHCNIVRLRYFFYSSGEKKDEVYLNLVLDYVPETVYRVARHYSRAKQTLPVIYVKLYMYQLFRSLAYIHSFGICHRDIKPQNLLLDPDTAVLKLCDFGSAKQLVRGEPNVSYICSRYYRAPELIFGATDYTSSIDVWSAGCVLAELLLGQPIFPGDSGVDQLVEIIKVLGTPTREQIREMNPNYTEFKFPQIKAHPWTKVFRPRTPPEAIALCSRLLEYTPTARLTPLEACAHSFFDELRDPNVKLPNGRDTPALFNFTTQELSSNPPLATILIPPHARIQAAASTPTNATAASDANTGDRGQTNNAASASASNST
Sequence of Fibroblast growth factor receptor 3 (Homo sapiens) (P22607 23-806 limits assumed): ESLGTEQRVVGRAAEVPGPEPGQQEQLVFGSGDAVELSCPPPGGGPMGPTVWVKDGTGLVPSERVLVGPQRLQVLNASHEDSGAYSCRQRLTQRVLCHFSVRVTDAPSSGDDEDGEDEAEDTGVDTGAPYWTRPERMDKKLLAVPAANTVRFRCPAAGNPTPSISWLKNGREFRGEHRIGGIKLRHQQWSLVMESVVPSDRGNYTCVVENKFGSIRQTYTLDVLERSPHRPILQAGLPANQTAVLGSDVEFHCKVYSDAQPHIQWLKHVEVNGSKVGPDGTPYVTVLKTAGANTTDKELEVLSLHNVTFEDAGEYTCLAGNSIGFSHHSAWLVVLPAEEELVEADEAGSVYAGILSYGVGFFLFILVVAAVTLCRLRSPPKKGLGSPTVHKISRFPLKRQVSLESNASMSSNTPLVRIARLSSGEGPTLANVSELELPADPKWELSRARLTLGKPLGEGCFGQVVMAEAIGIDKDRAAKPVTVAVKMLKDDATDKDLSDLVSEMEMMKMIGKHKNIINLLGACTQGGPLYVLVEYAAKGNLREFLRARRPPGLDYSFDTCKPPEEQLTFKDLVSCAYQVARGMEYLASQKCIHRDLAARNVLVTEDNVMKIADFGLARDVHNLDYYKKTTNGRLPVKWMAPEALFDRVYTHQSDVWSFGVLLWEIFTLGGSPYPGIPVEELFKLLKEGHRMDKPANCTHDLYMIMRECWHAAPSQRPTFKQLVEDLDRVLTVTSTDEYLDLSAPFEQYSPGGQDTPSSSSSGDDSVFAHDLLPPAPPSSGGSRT
Sequence of Serine/threonine-protein kinase B-raf (Homo sapiens, UniProt P15056, V600E) (P15056 2-766 V600E limits assumed): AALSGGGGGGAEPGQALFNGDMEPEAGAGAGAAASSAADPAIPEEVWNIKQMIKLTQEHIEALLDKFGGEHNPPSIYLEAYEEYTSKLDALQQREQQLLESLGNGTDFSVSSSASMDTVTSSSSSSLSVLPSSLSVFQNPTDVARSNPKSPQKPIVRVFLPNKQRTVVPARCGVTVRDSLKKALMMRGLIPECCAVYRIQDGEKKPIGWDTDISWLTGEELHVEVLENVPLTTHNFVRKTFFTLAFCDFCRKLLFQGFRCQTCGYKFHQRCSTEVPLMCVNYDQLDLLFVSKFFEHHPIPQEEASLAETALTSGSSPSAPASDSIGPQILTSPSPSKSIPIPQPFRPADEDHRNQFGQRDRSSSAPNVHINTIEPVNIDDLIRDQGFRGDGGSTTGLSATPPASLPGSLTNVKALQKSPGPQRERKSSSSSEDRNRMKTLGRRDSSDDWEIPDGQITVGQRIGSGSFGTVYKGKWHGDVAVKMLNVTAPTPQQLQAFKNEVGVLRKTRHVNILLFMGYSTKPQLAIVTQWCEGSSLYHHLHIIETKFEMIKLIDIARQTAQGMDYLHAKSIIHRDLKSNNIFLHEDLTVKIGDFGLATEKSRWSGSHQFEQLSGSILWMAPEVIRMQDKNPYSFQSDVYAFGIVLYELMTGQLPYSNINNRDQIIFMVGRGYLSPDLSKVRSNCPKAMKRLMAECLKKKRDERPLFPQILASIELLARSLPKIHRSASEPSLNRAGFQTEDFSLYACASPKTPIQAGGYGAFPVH
Sequence of Mitogen-activated protein kinase 3 (Homo sapiens) (P27361 whole entry): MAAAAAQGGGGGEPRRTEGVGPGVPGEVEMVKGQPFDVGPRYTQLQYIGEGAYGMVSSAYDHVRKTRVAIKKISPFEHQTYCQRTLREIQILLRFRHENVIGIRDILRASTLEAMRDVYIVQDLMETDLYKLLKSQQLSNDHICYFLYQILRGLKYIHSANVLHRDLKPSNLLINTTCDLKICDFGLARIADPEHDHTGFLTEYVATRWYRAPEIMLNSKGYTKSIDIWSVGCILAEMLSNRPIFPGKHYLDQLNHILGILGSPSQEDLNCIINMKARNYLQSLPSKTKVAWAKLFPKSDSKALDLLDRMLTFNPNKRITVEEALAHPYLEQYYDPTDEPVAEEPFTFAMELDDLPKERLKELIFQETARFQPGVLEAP
Sequence of Serine/threonine-protein kinase B-raf (Homo sapiens), P15056 [V600E] (P15056 whole entry V600E): as the sequence (P15056 whole entry) above, with V600E counted along it

Cc1ccc(NC(=O)c2cc(N3CCN(C)CC3)cc(C(F)(F)F)c2)cc1NC(=O)c1cnoc1C
inhibition [1]: 0%
inhibition [2]: 0%
GI50 at 24 h [3]: > 30 µM
inhibition [4]: 3.6%
GI50 (U-937): 0.016 µM
inhibition [5]: 95.9%
inhibition [6]: 7.5%
IC50 [7]: 0.00995 µM
IC50 [8]: 0.0448 µM
inhibition [9]: 0%
inhibition [10]: 61.2%
inhibition [11]: 0%
Activity (A375P): inactive
inhibition [12]: 0%
inhibition [13]: 15.3%
IC50 [14]: 0.668 µM
inhibition [15]: 97.8%
inhibition [16]: 7.54%
inhibition [17]: 0%
inhibition [18]: 0%
inhibition [19]: 0%
inhibition [20]: 98.7%
inhibition [21]: 2.12%
inhibition [22]: 1.14%
inhibition [23]: 8.27%
inhibition [24]: 5.73%
inhibition [25]: 3.81%
inhibition [26]: 87.9%
inhibition [27]: 0%
inhibition [28]: 0%
inhibition [29]: 0%
inhibition [30]: 0%
inhibition [31]: 0%
IC50 [32]: 5.96 µM
inhibition [33]: 0%
inhibition [34]: 4.68%
IC50 [35]: 0.0659 µM
inhibition [36]: 1.85%
